Results reported in patent US5436260A, “Angiotensin II receptor antagonists” (Warner-Lambert Company, priority 1994, dated 1995).
Structures can show the parent of a compound that is named as a salt.

Target: T1, AT1 receptor (Rattus norvegicus, UniProt P25095)
T1 construct: rat liver membranes; from tissue; host or cells: rat liver membranes
T1 sequence (P25095 1-359): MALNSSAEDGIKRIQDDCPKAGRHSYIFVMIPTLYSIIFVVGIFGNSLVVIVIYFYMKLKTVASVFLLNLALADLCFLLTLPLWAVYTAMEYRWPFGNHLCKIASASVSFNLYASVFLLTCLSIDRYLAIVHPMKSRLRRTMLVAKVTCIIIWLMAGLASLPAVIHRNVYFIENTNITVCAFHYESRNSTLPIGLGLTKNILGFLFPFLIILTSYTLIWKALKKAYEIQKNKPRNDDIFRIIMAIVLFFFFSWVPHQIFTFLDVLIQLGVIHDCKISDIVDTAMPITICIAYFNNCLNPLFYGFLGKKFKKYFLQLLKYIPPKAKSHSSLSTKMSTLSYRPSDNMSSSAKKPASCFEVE
Test: [^3 H]angiotensin II binding to rat liver membranes (AT1 test)
Details: inhibition of [^3 H]angiotensin II binding
Experimental: The compounds of Formula I or Ia are antagonists of angiotensin II. Dudley, D. T., et al, Molecular Pharmacology 1990;38:370-377 reported the existence of 2 subclasses of angiotensin II binding sites in rabbit adrenal gland and uterus and in the rat liver which differ in their tissue distribution and affinity for various peptide and nonpeptide ligands. Thus, the compounds of Formula I or Ia were tested for their ability to inhibit [^3 H]angiotensin II binding to rat liver membranes (AT1 test) according to the methods described by Dudley, D. T., et al, Molecular Pharmacology 1990;38:370-7. […] It is well established that compounds which antagonize the effect of angiotensin II at the AT1 receptor have value for treatment of hypertension and heart failure.

| Structure (SMILES) | IC50 [nM] |
| --- | --- |
| CCCCCCN1C(=O)N(CCCC)C(=O)/C1=C/c1cnc(CCCC)n1Cc1ccc(C(=O)OC)cc1 [Example 35, Methyl Z-4-[[2-butyl-5-[(1-butyl-3-hexyl-2,5-dioxo-4-imidazolidinylidene)methyl]-1H-imidazol-1-yl]methyl]benzoate monohydrochloride] | 40.2 |
| CCCCc1ncc(/C=C2/C(=O)N(CCCC)C(=O)N2Cc2ccc([N+](=O)[O-])cc2)n1Cc1ccc(C(=O)OC)cc1 [Example 38, mono hydrochloride] | 16.9 |
| CCCCc1ncc(/C=C2/C(=O)N(CCCC)C(=O)N2CCc2ccccc2)n1Cc1ccc(C(=O)OC)cc1 [Example 41, Methyl Z-4-[[2-butyl-5-[[1-butyl-2,5-dioxo-3-(2-phenylethyl)-4-imidazolidinylidene]methyl]-1H-imidazol-1-yl]methyl]benzoate mono hydrochloride] | 30.9 |
| CCCCc1ncc(/C=C2/C(=O)N(CCCC)C(=O)N2Cc2nn[nH]n2)n1Cc1ccc(C(=O)OC)cc1 [Example 44, Methyl Z-4-[[2-butyl-5-[[1-butyl-2,5-dioxo-3-(1H-tetrazol-5-ylmethyl)-4-imidazolidinylidene]methyl]-1H-imidazol-1-yl]methyl]benzoate monohydrochloride] | 41.7 |
| CCCCCCN1C(=O)N/C(=C\c2cnc(CCCC)n2Cc2ccc(C(=O)OC)cc2)C1=O [Example 47, Methyl ZX-4-[[2-butyl-5-[(1-hexyl-2,5-dioxo-4-imidazolidinylidene)methyl]-1H-imidazol-1-yl]m,ethyl]benzoate] | > 1000 |
| CCCCCCN1C(=O)/C(=C/c2cnc(CCCC)n2Cc2ccc(C(=O)OC)cc2)N(CCCC)C1=O [Example 48, Methyl Z-4-[[2-butyl-5-[(3-butyl-1-hexyl-2,5-dioxo-4-imidazolidinylidene)methyl]-1H-imidazol-1-yl]methyl]benzoate monohydrochloride] | 14.6 |
| CCCCCCN1C(=O)/C(=C/c2cnc(CCCC)n2Cc2ccc(C(=O)OC)cc2)N(Cc2ccsc2)C1=O [Example 49, Methyl Z-4-[[2-butyl-5-[[1-hexyl-2,5-dioxo-3-(3-thienylmethyl)-4-imidazolidinylidene]methyl]-1H-imidazol-1-yl]methyl]benzoate monohydrochloride] | 9.48 |
| CCCCCCN1C(=O)/C(=C/c2cnc(CCCC)n2Cc2ccc(C(=O)OC)cc2)N(Cc2csc(C)n2)C1=O [Example 51, Methyl Z-4-[[2-butyl-5-[1-hexyl-3-[(2-methyl-4-thiazolyl)methyl-2,5-dioxo-4-imidazolidinylidene]methyl]-1H-imidazol-1-yl]methyl]benzoate dihydrochloride] | 5.33 |
| CCCCc1ncc(/C=C2\NC(=O)N(COC)C2=O)n1Cc1ccc(C(=O)OC)cc1 [Example 53] | > 1000 |
| CCCCc1ncc(/C=C2/C(=O)N(COC)C(=O)N2Cc2ccccc2)n1Cc1ccc(C(=O)OC)cc1 [Example 55, Methyl Z-4-[[2-butyl-5-[[1-(methoxymethyl)-2,5-dioxo-3-(phenylmethyl)-4-imidazolidinylidene]methyl]-1H-imidazol-1-yl]methyl]benzoate monohydrochloride] | 12.8 |
| CCCCc1ncc(/C=C2/C(=O)N(COC)C(=O)N2Cc2csc(C)n2)n1Cc1ccc(C(=O)OC)cc1 [Example 56, Methyl Z-4-[[2-butyl-5-[[1-(methoxymethyl)-3-[(2-methyl-4-thiazolyl)methyl]-2,5-dioxo-4-imidazolidinylidene]methyl]-1H-imidazol-1-yl]methyl]benzoate dihydrochloride] | 47.8 |
| CCCCc1ncc(/C=C2/C(=O)N(CCCC)C(=O)N2Cc2cccc[n+]2[O-])n1Cc1ccc(C(=O)OC)cc1 [Example 57, Methyl Z-4-[[2-butyl-5-[[1-butyl-2,5-dioxo-3-[(2-pyridinyl-N-oxide)-methyl]-4-imidazolidinylidene]methyl]-1H-imidazol-1-yl]methyl]benzoate] | 260 |
| CCCCc1ncc(/C=C2/C(=O)N(CCCC)C(=O)N2Cc2ccccn2)n1Cc1ccc(C(=O)OC)cc1 [Example 58, Methyl Z-4-[[2-butyl-5-[[1-butyl-2,5-dioxo-3-(2-pyridinylmethyl)-4-imidazolidinylidene]methyl]-1H-imidazol-1-yl]methyl]benzoate dihydrochloride] | 5.81 |
| CCCCc1ncc(/C=C2/C(=O)N(CCCC)C(=O)N2Cc2csc(C)n2)n1Cc1ccc(C(=O)O)cc1 [Example 59, Z-4-[[2-butyl-5-[[1-butyl-3-[(2-methyl-4thiazolyl)methyl]-2,5-dioxo-4-imidazolidinylidene]methyl]-1H-imidazol-1-yl]methyl]benzoic acid] | 1.21 |

Continued, values first:

| IC50 [nM] | Structure (SMILES) |
| --- | --- |
| 8.49 | CCCCc1ncc(/C=C2/C(=O)N(CCCC)C(=O)N2CCCC)n1Cc1ccc(C(=O)OC)cc1 [Example 33, Methyl Z-4-[[2-butyl-5-[(1,3-dibutyl-2,5-dioxo-4-imidazolidinylidene)methyl]-1 H-imidazol-1-yl]methyl]benzoate monohydrochloride] |
| 12.4 | CCCCc1ncc(/C=C2/C(=O)N(CCCC)C(=O)N2Cc2ccccc2)n1Cc1ccc(C(=O)OC)cc1 [Example 36, Methyl Z-4-[[2-butyl-5-[[1-butyl-2,5-dioxo-3-(phenylmethyl)-4-imidazolidinylidene]methyl]-1H-imidazol-1-yl]methyl]benzoate monohydrochloride] |
| 14.3 | CCCCc1ncc(/C=C2/C(=O)N(CCCC)C(=O)N2Cc2ccc(C(=O)OC)cc2)n1Cc1ccc(C(=O)OC)cc1 [Example 37, Methyl Z-4-[[2-butyl-5-[[1-butyl-3-[[4-(methoxycarbonyl)phenyl]methyl]-2,5-dioxo-4-imidazolidinylidene]methyl]-1H-imidazol-1-yl]methyl]benzoate monohydrochloride] |
| 884 | CCCCc1ncc(/C=C2/C(=O)N(CCCC)C(=O)N2C(c2ccccc2)c2ccccc2)n1Cc1ccc(C(=O)OC)cc1 [Example 42, Methyl Z-4-[[2-butyl-5-[[1-butyl-2,5-dioxo-3-(diphenylmethyl)-4-imidazolidinylidene]methyl]-1H-imidazol-1-yl]methyl]benzoate mono hydrochloride] |
| 3.33 | CCCCc1ncc(/C=C2/C(=O)N(CCCC)C(=O)N2CC2CCCCC2)n1Cc1ccc(C(=O)OC)cc1 [Example 43, Methyl Z-4-[[2-butyl-5-[[1-butyl-3-(cyclohexylmethyl)-2,5-dioxo-4-imidazolidinylidene]methyl]-1H-imidazol-1-yl]methyl]benzoate mono hydrochloride] |
| 26.6 | CCCCCCN1C(=O)/C(=C/c2cnc(CCCC)n2Cc2ccc(C(=O)OC)cc2)N(Cc2ccccc2)C1=O [Example 50, Methyl Z-4-[[2-butyl-5-[[1-hexyl-2,5-dioxo-3-(phenylmethyl)-4-imidazolidinylidene]methyl]-1H-imidazol-1-yl]methyl]benzoate monohydrochloride] |
| 29.5 | CCCCc1ncc(/C=C2/C(=O)N(COC)C(=O)N2CCCC)n1Cc1ccc(C(=O)OC)cc1 [Example 54, Methyl Z-4-[[2-butyl-5-[[3-butyl-1-(methoxymethyl)-2,5-dioxo-4-imidazolidinylidene]methyl]-1H-imidazol-1-yl]methyl]benzoate monohydrochloride] |
